Experimental data reported in publication PMC11121535, “Inhibition of Shikimate Kinase from Methicillin-Resistant Staphylococcus aureus by Benzimidazole Derivatives. Kinetic, Computational, Toxicological, and Biological Activity Studies” (International Journal of Molecular Sciences, 2024).
Read-outs that look alike come from different tables or passages of the source.

Tests used:
[1] = target: T1, shikimate kinase (SaSK) (Staphylococcus aureus, UniProt Q5HFM1); experiment: biochemical; design: Coupled PK/LDH assay of purified SaSK, NADH oxidation at 340 nm, fixed-concentration inhibition screen, 25 °C
T1 construct: gene aroK
T1 sequence (Q5HFM1 1-174): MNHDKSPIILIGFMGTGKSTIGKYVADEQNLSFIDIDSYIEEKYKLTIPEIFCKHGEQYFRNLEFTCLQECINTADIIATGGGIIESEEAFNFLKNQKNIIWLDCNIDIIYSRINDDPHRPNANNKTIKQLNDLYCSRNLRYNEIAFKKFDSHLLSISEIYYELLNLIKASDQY
Procedure: The activity of purified SaSK was measured by a coupled assay described by Favela et al., [67] following the oxidation of NADH to NAD, monitored at 340 nm using an Hp Agilent 8453 UV-VIS spectrophotometer. The assay mixture contained 100 mM Tris-HCl pH 7.6, 5 mM MgCl2, 100 mM KCl, 2 mM ATP, 1 mM shikimate, 1 mM phosphoenolpyruvate, 6 μg/mL pyruvate kinase, 6 μg/mL lactate dehydrogenase, 0.25 mM NADH, 10% of dimethyl sulfoxide (DMSO), and 70 ng of purified SaSK protein. All assays were performed in triplicate at 25 °C. It is important to mention that at the percentage of DMSO used, the activity of the enzyme was not affected. The primary screening of the benzimidazole compound library was carried out at a fixed concentration of 200 µM or at the maximum solubility possible for compounds with poor solubility in assay conditions. All the compounds were dissolved in DMSO.

[2] = target: T2, shikimate kinase (SaSK) (Staphylococcus aureus, UniProt Q5HFM1); experiment: pyruvate kinase/lactate dehydrogenase coupled assay with purified SaSK; Lineweaver-Burk (Ki […] vs shikimate, […] vs ATP); type: biochemical
T2 construct: gene aroK

[3] = target: T2, shikimate kinase (SaSK); experiment: as above; type: biochemical; remark: listed apart in the source
[4] = target: T2, shikimate kinase (SaSK); experiment: coupled enzyme assay, purified SaSK, % inhibition at […]; type: biochemical

Compound: O=C(NN=Cc1ccc([N+](=O)[O-])o1)c1ccc2[nH]cnc2c1 [C1, N′-[(5-Nitrofuran-2-yl)methylene]-1H-benzimidazole-5-carbohydrazide]
- inhibition at 70 µM [1]: 50%
- Ki [2]: 48 µM

Compound: Cn1c(C(F)(F)F)nc2cc(C(=O)NN=Cc3ccc([N+](=O)[O-])o3)ccc21 [C2, 1-Methyl-N′-[(5-nitrofuran-2-yl)methylene]-2-(trifluoromethyl)-1H-benzimidazole-5-carbohydrazide]
- inhibition at 100 µM [1]: 60%
- Ki [3]: 50 µM

Compound: O=C(NN=Cc1ccc([N+](=O)[O-])o1)c1ccc2[nH]c(C(F)(F)F)nc2c1 [C3, N′-[(5-Nitrofuran-2-yl)methylene]-2-(trifluoromethyl)-1H-benzimidazole-5-carbohydrazide]
- inhibition at 100 µM [4]: 43%

Compound: Cn1cnc2cc(C(=O)NN=Cc3ccc([N+](=O)[O-])o3)ccc21 [C4, 1-Methyl-N′-[(5-nitrofuran-2-yl)methylene]-1H-benzimidazole-5-carbohydrazide]
- inhibition at 100 µM [4]: 40%
